In BindingDB's records for PubMed 35671625 (Northwest University, 2022) one finds Kd data, which are given here for one compound.

The target of this assay is Beta-2 adrenergic receptor (Homo sapiens, UniProt P07550). As to the kind of experiment: Displacement of [3H]-CGP12,177 from immobilized Halo tag-fused beta2 adrenoceptor (unknown origin) expressed in Escherichia coli BL21 (DE3).
Beta-2 adrenergic receptor, sequence (P07550 whole entry, the tested form may be a part): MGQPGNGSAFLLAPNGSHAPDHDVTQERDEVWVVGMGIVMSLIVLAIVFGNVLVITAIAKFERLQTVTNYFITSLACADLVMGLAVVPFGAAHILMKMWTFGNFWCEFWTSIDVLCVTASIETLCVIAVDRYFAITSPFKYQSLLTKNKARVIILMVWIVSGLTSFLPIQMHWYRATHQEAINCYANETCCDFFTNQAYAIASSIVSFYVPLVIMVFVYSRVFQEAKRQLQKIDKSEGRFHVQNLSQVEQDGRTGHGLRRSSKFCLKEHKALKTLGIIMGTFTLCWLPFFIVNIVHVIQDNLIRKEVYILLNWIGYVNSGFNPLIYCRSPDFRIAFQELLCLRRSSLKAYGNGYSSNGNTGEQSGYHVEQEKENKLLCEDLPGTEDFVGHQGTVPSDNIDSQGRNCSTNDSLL

`CNC(C)Cc1ccccc1OC` (stereo unspecified) [Methoxyphenamine] returned a Kd of 2.1 nM. This lies in the single-digit nanomolar range.
